Source: patent US8143282B2, “Heterocyclic compounds” (S*BIO Pte Ltd., priority 2005, dated 2012)

Experiments:
HDAC1 enzyme = target: T1, HDAC1 enzyme (Homo sapiens, UniProt Q13547); test: In vitro HDAC assay for determination of IC50 values (BIOMOL fluorescent-based HDAC activity assay); assay type: biochemical
T1 construct: Amplification of human HDAC1 coding region from this cDNA library was cloned separately into the baculovirus expression pDEST20 vector; made in house; host or cells: SF9 insect cells, pDEST20-HDAC1 baculovirus
T1 sequence (Q13547 whole entry): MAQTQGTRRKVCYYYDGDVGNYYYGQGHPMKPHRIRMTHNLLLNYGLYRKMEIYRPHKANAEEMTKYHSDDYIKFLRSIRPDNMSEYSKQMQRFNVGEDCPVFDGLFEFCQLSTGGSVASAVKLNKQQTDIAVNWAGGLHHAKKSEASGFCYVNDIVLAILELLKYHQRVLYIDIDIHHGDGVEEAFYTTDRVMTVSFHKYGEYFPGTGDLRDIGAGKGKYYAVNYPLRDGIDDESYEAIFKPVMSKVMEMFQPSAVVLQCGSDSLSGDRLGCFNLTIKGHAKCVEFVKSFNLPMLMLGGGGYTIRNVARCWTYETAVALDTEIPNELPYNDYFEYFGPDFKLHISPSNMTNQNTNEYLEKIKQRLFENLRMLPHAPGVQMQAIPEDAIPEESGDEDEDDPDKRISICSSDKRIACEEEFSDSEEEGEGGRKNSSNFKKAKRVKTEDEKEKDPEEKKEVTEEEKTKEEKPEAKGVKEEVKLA
Description: Human cDNA library was prepared using cultured SW620 cells. Amplification of human HDAC1 coding region from this cDNA library was cloned separately into the baculovirus expression pDEST20 vector (GATEWAY Cloning Technology, Invitrogen Pte Ltd). The pDEST20-HDAC1 construct was confirmed by DNA sequencing. Recombinant baculovirus was prepared using the Bac-To-Bac method following the manufacturer's instruction (Invitrogen Pte Ltd).
Expression of GST-HDAC1 was done by infecting SF9 cells (Invitrogen Pte Ltd) with pDEST20-HDAC1 baculovirus at MOI=1 for 48 h. Soluble cell lysate was incubated with pre-equilibrated Glutathione Sepharose 4B beads (Amersham) at 4° C. for 2 h. The beads were washed with PBS buffer for 3 times. The GST-HDAC1 protein was eluted by elution buffer containing 50 mM Tris, pH8.0, 150 mM NaCl, 1% Triton X-100 and 10 mM or 20 mM reduced Glutathione. The purified GST-HDAC1 protein was dialyzed with HDAC storage buffer containing 10 mM Tris, pH7.5, 100 mM NaCl and 3 mM MgCl2. 20% Glycerol was added to purified GST-HDAC1 protein before storage at −80° C.
The assay has been carried out in 96 well format and the BIOMOL fluorescent-based HDAC activity assay has been applied. […] Flur de lys Developer was added and the reaction was incubated for 10 min. Briefly, deacetylation of the substrate sensitizes it to the developer, which then generates a fluorophore. The fluorophore is excited with 360 nm light and the emitted light (460 nm) is detected on a fluorometric plate reader (Tecan Ultra Microplate detection system, Tecan Group Ltd.).
The analytical software, Prism 4.0 (GraphPad Software Inc) has been used to generate IC50 from a series of data.

Colo205 cells = test: Cell-based proliferation assay for GI50 (CyQUANT), Colo205; conditions: Homo sapiens, COLO 205, 96 h treatment, read-out: Cellular or Growth Inhibition Activity in Colo205 cells, GI50
Description: Human colon cancer cell lines (Colo205, HCT116), Ovarian cancer cell line (A2780), Hepatoma cell line (HEP3B), Prostate cancer cell line (PC3) were obtained from ATCC or ECACC. Colo205 cells were cultivated in RPMI 1640 containing 2 mM L-Glutamine, 5% FBS, 1.0 mM Na Pyruvate, 1 U/ml of penicillin and 1 μg of streptomycin. HCT116 cells were cultivated in McCoy's containing RPMI 1640 containing 2 mM L-Glutamine, 5% FBS, 1 U/ml of penicillin and 1 μg of streptomycin. A2780 cells were cultivated in RPMI 1640 containing 2 mM L-Glutamine, 5% FBS, 1 U/ml of penicillin and 1 μg of streptomycin. HEP3B cells were cultivated in EMEM containing 2 mM L-glutamine, 5% FBS, 1% non essential amino acid, 1 mM Na Pyruvate, 1 U/ml of penicillin and 1 μg of streptomycin. PC3 cells were cultivated in F12K, 2 mM L-glutamine, 5% FBS, 1 U/ml of penicillin and 1 μg of streptomycin. PC3, Colo205, and HCT116 cells were seeded in 96-wells plate at 1000, 5000 and 6000 cells per well respectively. A2780 and HEP3B cells were seeded in 96-wells plate at 4000 cells per well respectively. The plates were incubated at 37° C., 5% CO2, for 24 h. Cells were treated with compounds at various concentrations for 96 h. Cell growth was then monitored using CyQUANT® cell proliferation assay (Invitrogen Pte Ltd). Dose response curves were plotted to determine GI50 values for the compounds using XL-fit (ID Business Solution, Emeryville, Calif.). GI50 is defined as the concentration of compound required for 50% inhibition of cell growth.

SMILES	IC50 (HDAC1 enzyme)	GI50 (Colo205 cells)
CCC(CC)CN(C)CCn1cnc2cc(/C=C/C(=O)NO)ccc21 [Compound 123, 3-(1-{2-[(2-Ethyl-butyl)-methyl-amino]-ethyl}-1H-benzoimidazol-5-yl)-N-hydroxy-acrylamide]	27 nM	150 nM
CCCCN(CCn1cnc2cc(/C=C/C(=O)NO)ccc21)CC(F)(F)F [Compound 138, 3-(1-{2-[Butyl-(2,2,2-trifluoro-ethyl)-amino]-ethyl}-1H-benzoimidazol-5-yl)-N-hydroxy-acrylamide]	100 nM	1960 nM
C=CCCCN1CCCC(n2cnc3cc(/C=C/C(=O)NO)ccc32)C1 (stereo not drawn) [Compound 103, (E)-N-hydroxy-3-(1-(1-(pent-4-enyl)piperidin-3-yl)-1H-benzo[d]imidazol-5-yl)acrylamide]	100 nM	480 nM
CN(C)CC(C)(C)Cn1c(C2CCCCC2)nc2cc(/C=C/C(=O)NO)ccc21 [Compound 24, 3-[2-Cyclohexyl-1-(3-dimethylamino-2,2-dimethyl-propyl)-1H-benzoimidazol-5-yl]-N-hydroxy-acrylamide]	510 nM	2990 nM
CC(Cc1nc2cc(/C=C/C(=O)NO)ccc2n1CCN(C(C)C)C(C)C)CC(C)(C)C (stereo not drawn) [Compound 38, 3-[1-(2-Diisopropylamino-ethyl)-2-(2,4,4-trimethyl-pentyl)-1H-benzoimidazol-5-yl]-N-hydroxy-acrylamide]	560 nM	1940 nM
CCCN(CCn1cnc2cc(/C=C/C(=O)NO)ccc21)C(C)C [Compound 107, (E)-N-hydroxy-3-(1-(2-(isopropyl(propyl)amino)ethyl)-1H-benzo[d]imidazol-5-yl)acrylamide]	74 nM	630 nM
CC(C)(C)CCN(CCn1cnc2cc(/C=C/C(=O)NO)ccc21)CCC(C)(C)C [Compound 124, (E)-3-(1-(2-(bis(3,3-dimethylbutyl)amino)ethyl)-1H-benzo[d]imidazol-5-yl)-N-hydroxyacrylamide]	85 nM	540 nM
CCCCCc1nc2cc(/C=C/C(=O)NO)ccc2n1CCN(C)CC [Compound 79, 3-{1-[2-(Ethyl-methyl-amino)-ethyl]-2-pentyl-1H-benzoimidazol-5-yl}-N-hydroxy-acrylamide]	40 nM	450 nM
CC(C)Cc1nc2cc(/C=C/C(=O)NO)ccc2n1CC(C)(C)CN(C)C [Compound 6, 3-[1-(3-Dimethylamino-2,2-dimethyl-propyl)-2-isobutyl-1H-benzoimidazol-5-yl]-N-hydroxy-acrylamide]	180 nM	2690 nM
CN(C)CC(C)(C)Cn1c(C2CC3C=CC2C3)nc2cc(/C=C/C(=O)NO)ccc21 (stereo not drawn) [Compound 25, 3-[2-Bicyclo[2.2.1]hept-5-en-2-yl-1-(3-dimethylamino-2,2-dimethyl-propyl)-1H-benzoimidazol-5-yl]-N-hydroxy-acrylamide]	230 nM	2380 nM
CCCCCN(CCn1cnc2cc(/C=C/C(=O)NO)ccc21)C(C)C [Compound 109, N-Hydroxy-3-{1-[2-(isopropyl-pentyl-amino)-ethyl]-1H-benzoimidazol-5-yl}-acrylamide]	48 nM	490 nM
CCCCCc1nc2cc(/C=C/C(=O)NO)ccc2n1C1CCCN(C)C1 (stereo not drawn) [Compound 86, N-Hydroxy-3-[1-(1-methyl-piperidin-3-yl)-2-pentyl-1H-benzoimidazol-5-yl]-acrylamide]	160 nM	2080 nM
CCCc1nc2cc(/C=C/C(=O)NO)ccc2n1CCN(CC)CC [Compound 42, 3-[1-(2-Diethylamino-ethyl)-2-propyl-1H-benzoimidazol-5-yl]-N-hydroxy-acrylamide]	150 nM	980 nM

Further lines, results first:

IC50 (HDAC1 enzyme)	GI50 (Colo205 cells)	SMILES
78 nM	340 nM	C=CCCCN(C)CCn1cnc2cc(/C=C/C(=O)NO)ccc21 [Compound 127, N-Hydroxy-3-{1-[2-(methyl-pent-4-enyl-amino)-ethyl]-1H-benzoimidazol-5-yl}-acrylamide]
63 nM	1030 nM	CCCCCc1nc2cc(/C=C/C(=O)NO)ccc2n1CCN(CC)CCOC [Compound 84, 3-(1-{2-[Ethyl-(2-methoxy-ethyl)-amino]-ethyl}-2-pentyl-1H-benzoimidazol-5-yl)-N-hydroxy-acrylamide]
130 nM	1190 nM	CCN(CC)CCn1c(CC(C)(C)C)nc2cc(/C=C/C(=O)NO)ccc21 [Compound 17, 3-[1-(2-Diethylamino-ethyl)-2-(2,2-dimethyl-propyl)-1H-benzoimidazol-5-yl]-N-hydroxy-acrylamide]
190 nM	1800 nM	CCCCN(CC)CCn1c(C(F)(F)F)nc2cc(/C=C/C(=O)NO)ccc21 [Compound 117, 3-{1-[2-(Butyl-ethyl-amino)-ethyl]-2-trifluoromethyl-1H-benzoimidazol-5-yl}-N-hydroxy-acrylamide]
100 nM	730 nM	CN(C)CCn1c(CCC(C)(C)C)nc2cc(/C=C/C(=O)NO)ccc21 [Compound 64, 3-[2-(3,3-Dimethyl-butyl)-1-(2-Dimethylamino-ethyl)-1H-benzoimidazol-5-yl]-N-hydroxy-acrylamide]
110 nM	1750 nM	C=CCCc1nc2cc(/C=C/C(=O)NO)ccc2n1CCNCC [Compound 49, 3-[2-But-3-enyl-1-(2-ethylamino-ethyl)-1H-benzoimidazol-5-yl]-N-hydroxy-acrylamide]
17 nM	160 nM	CCCCC/C=C\CCc1nc2cc(/C=C/C(=O)NO)ccc2n1CCNC [Compound 72, N-Hydroxy-3-[1-(2-methylamino-ethyl)-2-non-3-enyl-1H-benzoimidazol-5-yl]-acrylamide]
100 nM	2480 nM	CCN(CC)CCn1c(CCNC(=O)C(C)(C)C)nc2cc(/C=C/C(=O)NO)ccc21 [Compound 60, 3-{1-(2-Diethylamino-ethyl)-2-[2-(2,2-dimethyl-propionylamino)-ethyl]-1H-benzoimidazol-5-yl}-N-hydroxy-acrylamide]
68 nM	7000 nM	CCCCc1nc2cc(/C=C/C(=O)NO)ccc2n1C1CCNCC1 [Compound 70, 3-(2-Butyl-1-piperidin-4-yl-1H-benzoimidazol-5-yl)-N-hydroxy-acrylamide]
50 nM	1200 nM	CCCCCc1nc2cc(/C=C/C(=O)NO)ccc2n1CCNC [Compound 75, N-Hydroxy-3-[1-(2-methylamino-ethyl)-2-pentyl-1H-benzoimidazol-5-yl]-acrylamide]
170 nM	2580 nM	CCOCc1nc2cc(/C=C/C(=O)NO)ccc2n1CC(C)(C)CN(C)C [Compound 5, 3-[1-(3-Dimethylamino-2,2-dimethyl-propyl)-2-ethoxymethyl-1H-benzoimidazol-5-yl]-N-hydroxy-acrylamide]
26 nM	230 nM	CC/C=C\CCCCCc1nc2cc(/C=C/C(=O)NO)ccc2n1CCNC [Compound 73, N-Hydroxy-3-[1-(2-methylamino-ethyl)-2-non-6-enyl-1H-benzoimidazol-5-yl]-acrylamide]
85 nM	1500 nM	CCOCc1nc2cc(/C=C/C(=O)NO)ccc2n1CCN(CC)CC [Compound 15, 3-[1-(2-Diethylamino-ethyl)-2-ethoxymethyl-1H-benzoimidazol-5-yl]-N-hydroxy-acrylamide]
380 nM	2510 nM	CC(C)Cc1nc2cc(/C=C/C(=O)NO)ccc2n1CCN(C(C)C)C(C)C [Compound 21, 3-[1-(2-Diisopropylamino-ethyl)-2-isobutyl-1H-benzoimidazol-5-yl]-N-hydroxy-acrylamide]
